Assay results reported in US8207154B2, “Catatonic bacteriochlorophyll derivatives” (Yeda Research and Development Co., Ltd., priority 2005, dated 2012).
Where two headings read alike, the source gives them in different places.

System: H5V cells
Assay: Phototoxicity assay (PDT efficacy at two incubation times), neutral red survival
Assay type: cell-based, mouse
Settings: then 10 min illumination, 12 J/cm^2
Protocol: H5V cells (40×10^3/well) were cultured in 96-well plates for 24 h to ˜80% confluence. To determine phototoxicity, the culture medium was replaced with 100 μl/well medium, in the absence or presence of 10^−8 to 10^−6 M sensitizer, and incubated in the dark for 15 min or 3 h in the culture incubator. The plates (PDT group) were then placed in the light field at room temperature and illuminated from the bottom for 10 min (800>λ>650 nm, 12 J/cm^2). After illumination, the medium was changed to fresh culture medium. The cultures were then placed in the culture incubator and cell survival was determined 24 h later, using the neutral red survival assay described below.
Following 24 h post PDT the culture medium in the wells was replaced with 100 μl fresh medium containing 40 μg/ml neutral red. The plate was incubated for 1.5 h in a dark culture incubator. The medium was aspirated and the cells washed with 100 μl of solution containing 1% CaCl2 and 0.5% formaldehyde, which removes the unincorporated dye and fixes the cells to the substratum. The dye was then extracted from the cells into the supernatant upon addition of 100 μl 1% glacial acetic acid in 50% ethanol. After 1-2 min at room temperature, the optical density of the wells was determined in a microplate spectrophotometer using a 570 nm filter. After subtraction of assay blanks, net optical density was computed as the average value of triplicate determinations. Cell survival was calculated as the percent of the dye accumulated in the untreated control. To determine cell survival data was plotted against sensitizer concentration. These curves were then used to calculated LD50 values.
Following synthesis, the compounds described in the Examples 23 to 75 above were purified, divided into equal aliquots and lyophilized for storage (desiccated at −20° C.). The exact material content was determined by HPLC-diode array detection, and the PDT efficacy was evaluated at two incubation times as described in the experimental section.

[1] = 15 min incubation in the dark, read-out: IC50 15 min
[2] = 3 h incubation in the dark, read-out: IC50 3 hours

| Compound | IC50 [1] [nM] | IC50 [2] [nM] |
| --- | --- | --- |
| CC[C@H]1C2=NC(=Cc3c(C(C)=O)c(C)c4[n]3[Pd][n]3c(c(C)c(C(=O)NCC(O)CO)c3=C(CC(=O)OC)C3=NC(=C4)[C@@H](C)[C@@H]3CCC(=O)NCCN(C)C)=C2)[C@@H]1C (stereo partly drawn) [Compound 49, Palladium 3^1-oxo-15-methoxycarbonylmethyl-Rhodobacteriochlorin-13^1-(2,3-dihydroxypropyl)amide-17^3-(2-N^2-dimethylaminoethyl)amide] | 1150 | 570 |
| CC[C@H]1C2=NC(=Cc3c(C(C)=O)c(C)c4[n]3[Pd][n]3c(c(C)c(C(=O)NCCCN(C)C)c3=C(CC(=O)OC)C3=NC(=C4)[C@@H](C)[C@@H]3CCC(=O)NCCCN(C)C)=C2)[C@@H]1C [Compound 37, Palladium 3^1-oxo-15-methoxycarbonylmethyl-Rhodobacteriochlorin-13^1, 17^3-di(3-N^2-dimethylaminopropyl)amide] | 750 | 210 |
| Palladium 3^1-oxo-15-methoxycarbonylmethyl-Rhodobacteriochlorin-13^1-(2,3-dihydroxypropyl)amide-17^3-(3-N-(2′-pyridyl)aminopropyl)amide [Compound 73] | 380 | 300 |
| CC[C@H]1C2=NC(=Cc3c(C(C)=O)c(C)c4[n]3[Pd][n]3c(c(C)c(C(=O)NCCN5CCNCC5)c3=C(CC(=O)OC)C3=NC(=C4)[C@@H](C)[C@@H]3CCC(=O)O)=C2)[C@@H]1C [Compound 30, Palladium 3^1-oxo-15-methoxycarbonylmethyl-Rhodobacteriochlorin-13^1-(2-piperazino-N-ethyl)amide] | 1700 | 610 |
| CC[C@H]1C2=NC(=Cc3c(C(C)=O)c(C)c4[n]3[Pd][n]3c(c(C)c(C(=O)NCCNCCN)c3=C(CC(=O)OC)C3=NC(=C4)[C@@H](C)[C@@H]3CCC(=O)NCCNCCN)=C2)[C@@H]1C [Compound 38, Palladium 3^1-oxo-15-methoxycarbonylmethyl-Rhodobacteriochlorin-13^1, 17^3-di-(2-[(2-aminoethyl)amino]ethyl)amide] | 440 | 160 |
| CC[C@H]1C2=NC(=Cc3c(C(C)=O)c(C)c4[n]3[Pd][n]3c(c(C)c(C(=O)NCCN(C)C)c3=C(CC(=O)OC)C3=NC(=C4)[C@@H](C)[C@@H]3CCC(=O)NCCN(C)C)=C2)[C@@H]1C [Compound 36, Palladium 3^1-oxo-15-methoxycarbonylmethyl-Rhodobacteriochlorin-13^1, 17^3-di(2-N^2-dimethylaminoethyl)amide] | 370 | 150 |
| CC(=O)O.CC[C@H]1C2=NC(=Cc3c(C(C)=O)c(C)c4[n]3[Pd][n]3c(c(C)c(C(=O)NCCN(C)C)c3=C(CC(=O)OC)C3=NC(=C4)[C@@H](C)[C@@H]3CCC(=O)NC[C@H](C)O)=C2)[C@@H]1C [Compound 69, Palladium 3^1-oxo-15-methoxycarbonylmethyl-Rhodobacteriochlorin-13^1-(2-N^2-dimethylaminoethyl)amide-17^3-((S)-2-hydroxypropyl)amide] | 500 | 160 |
| Palladium 3^1-oxo-15-methoxycarbonylmethyl-Rhodobacteriochlorin-13^1-(2-N^2-dimethylaminoethyl)amide-17^3-(glycosyl) amide [Compound 75] | 500 | 160 |
| Palladium 3^1-oxo-15-methoxycarbonylmethyl-Rhodobacteriochlorin-13^1-(2-N^2-dimethylaminoethyl)amide-17^3-((R)-2-hydroxypropyl)amide [Compound 68] | 500 | 160 |
| CCC1C2=Cc3c(C)c(C(=O)NCCNCCN(CC)CC)c4[n]3[Pd][n]3c(c(C)c(C(C)=O)c3=CC(=N2)C1C)=CC1=NC(=C4CC(=O)OC)C(CCC(=O)NCCNCCN(CC)CC)C1C (stereo not drawn) [Compound 39, Palladium 3^1-oxo-15-methoxycarbonylmethyl-Rhodobacteriochlorin-13^1,17^3-di-(2-[(2-N^2-diethylaminoethyl)amino]ethyl) amide] | 2440 | 1100 |
| CC[C@H]1C2=NC(=Cc3c(C(C)=O)c(C)c4[n]3[Pd][n]3c(c(C)c(C(=O)NCCN)c3=C(CC(=O)OC)C3=NC(=C4)[C@@H](C)[C@@H]3CCC(=O)NCCN)=C2)[C@@H]1C [Compound 10, Palladium 3^1-oxo-15-methoxycarbonylmethyl-Rhodobacteriochlorin-13^1, 17^3-di(2-aminoethyl)amide] | 740 | 240 |
| CCC1c2cc3[n-]c(c(CC(=O)OC)c4nc(cc5[n-]c(cc(n2)C1C)c(C(C)=O)c5C)C(C)C4CCC(=O)NCCN1CCNCC1)c(C(=O)NCCN1CCNCC1)c3C.[Pd+2] (stereo not drawn) [Compound 41, Palladium 3^1-oxo-15-methoxycarbonylmethyl-Rhodobacteriochlorin-13^1, 17^3-di(2-piperazino-N-ethyl)amide] | 1130 | 460 |
| CC[C@H]1C2=NC(=Cc3c(C(C)=O)c(C)c4[n]3[Pd][n]3c(c(C)c(C(=O)NCCN5CCOCC5)c3=C(CC(=O)OC)C3=NC(=C4)[C@@H](C)[C@@H]3CCC(=O)NCCN3CCOCC3)=C2)[C@@H]1C [Compound 40, Palladium 3^1-oxo-15-methoxycarbonylmethyl-Rhodobacteriochlorin-13^1, 17^3-di(2-morpholino-N-ethyl)amide] | 700 | 350 |
| CCC1c2cc3[n-]c(c(CC(=O)OC)c4nc(cc5[n-]c(cc(n2)C1C)c(C(C)=O)c5C)C(C)C4CCC(=O)NCCCNCCCN)c(C(=O)NCCCNCCCN)c3C.[Pd+2] (stereo not drawn) [Compound 42, Palladium 3^1-oxo-15-methoxycarbonylmethyl-Rhodobacteriochlorin-13^1, 17^3-di-(3-[(3-aminopropyl)amino]propyl)amide] | 680 | 280 |
| CC[C@H]1C2=NC(=Cc3c(C(C)=O)c(C)c4[n]3[Pd][n]3c(c(C)c(C(=O)NCCN(C)C)c3=C(CC(=O)OC)C3=NC(=C4)[C@@H](C)[C@@H]3CCC(=O)NCC(O)CO)=C2)[C@@H]1C (stereo partly drawn) [Compound 50, Palladium 3^1-oxo-15-methoxycarbonylmethyl-Rhodobacteriochlorin-13^1-(2-N^2-dimethylaminoethyl)amide-17^3-(2,3-dihydroxypropyl)amide] | 470 | 170 |
| CC[C@H]1C2=NC(=Cc3c(C(C)=O)c(C)c4[n]3[Pd][n]3c(c(C)c(C(=O)NCC(O)CO)c3=C(CC(=O)OC)C3=NC(=C4)[C@@H](C)[C@@H]3CCC(=O)NCCN(CCN)CCN)=C2)[C@@H]1C (stereo partly drawn) [Compound 58, Palladium 3^1-oxo-15-methoxycarbonylmethyl-Rhodobacteriochlorin-13^1-(2,3-dihydroxypropyl)amide-17^3-([2-bis(2-aminoethyl)amino]ethyl)amide] | 640 | 370 |
| Palladium 3^1-oxo-15-methoxycarbonylmethyl-Rhodobacteriochlorin-13^1-(3-aminopropyl)amide-17^3-(2,3-dihydroxypropyl)amide [Compound 60] | 620 | 240 |
| CC[C@H]1C2=NC(=Cc3c(C(C)=O)c(C)c4[n]3[Pd][n]3c(c(C)c(C(=O)NCCN(CCN)CCN)c3=C(CC(=O)OC)C3=NC(=C4)[C@@H](C)[C@@H]3CCC(=O)NCCN(CCN)CCN)=C2)[C@@H]1C [Compound 43, Palladium 3^1-oxo-15-methoxycarbonylmethyl-Rhodobacteriochlorin-13^1,17^3-di([2-bis(2-aminoethyl)amino]ethyl)amide] | 600 | 180 |
| CC[C@H]1C2=NC(=Cc3c(C(C)=O)c(C)c4[n]3[Pd][n]3c(c(C)c(C(=O)NCCN(C)C)c3=C(CC(=O)OC)C3=NC(=C4)[C@@H](C)[C@@H]3CCC(=O)O)=C2)[C@@H]1C [Compound 25, Palladium 3^1-oxo-15-methoxycarbonylmethyl-Rhodobacteriochlorin-13^1-(2-N^2-dimethylaminoethyl)amide] | 1100 | 750 |
| CC(=O)O.CC[C@H]1C2=NC(=Cc3c(C(C)=O)c(C)c4[n]3[Pd][n]3c(c(C)c(C(=O)NCCN(C)C)c3=C(CC(=O)OC)C3=NC(=C4)[C@@H](C)[C@@H]3CCC(=O)NCC(C)O)=C2)[C@@H]1C (stereo partly drawn) [Compound 67, Palladium 3^1-oxo-15-methoxycarbonylmethyl-Rhodobacteriochlorin-13^1-(2-N^2-dimethylaminoethyl)amide-17^3-(2-hydroxypropyl)amide] | 500 | 180 |
| CC(=O)O.CCNCCNC(=O)c1c(C)c2[n]3c1=C(CC(=O)OC)C1=NC(=Cc4c(C)c(C(C)=O)c([n]4[Pd]3)C=C3N=C(C=2)[C@H](CC)[C@H]3C)[C@@H](C)[C@@H]1CCC(=O)NCC(O)CO (stereo partly drawn) [Compound 63, Palladium 3^1-oxo-15-methoxycarbonylmethyl-Rhodobacteriochlorin-13^1-(2-N-ethylaminoethyl)amide-17^3-(2,3-dihydroxypropyl)amide] | 660 | 210 |
